Measured values: paper PMC11603075 (Communications Biology, 2024)

Biological target: T1, KDM4E (Homo sapiens, UniProt B2RXH2)
T1 construct: KDM4E1–337; made in house; host or cells: E. coli
T1 sequence (B2RXH2 1-337): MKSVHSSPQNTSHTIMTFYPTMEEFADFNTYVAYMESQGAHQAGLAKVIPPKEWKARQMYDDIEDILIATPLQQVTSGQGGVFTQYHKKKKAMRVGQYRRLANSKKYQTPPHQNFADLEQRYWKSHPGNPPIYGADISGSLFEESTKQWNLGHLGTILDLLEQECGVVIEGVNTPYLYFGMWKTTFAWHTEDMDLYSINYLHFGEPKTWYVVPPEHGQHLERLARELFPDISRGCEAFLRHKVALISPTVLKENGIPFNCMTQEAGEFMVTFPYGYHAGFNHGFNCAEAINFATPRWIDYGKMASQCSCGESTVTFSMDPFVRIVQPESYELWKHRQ
Assay: MALDI–TOF MS time course / specific activity, KDM4E
Assay type: biochemical
Description: MS-based screening assays with peptides and calf thymus histones were as reported; see Supplementary Table 6 for conditions. Time course assays were based on reported procedures. In brief, equal volumes of the enzyme and substrate solutions were combined to initiate the reaction; 10 µL of 2% (v/v) formic acid (HCOOH) in ddH2O or 100% methanol was added to 10 µL of the reaction mixture to quench reactions at different time points. Unless otherwise stated, time course assays were carried out in triplicate. In some cases, LC–MS was used instead of MALDI-TOF MS to avoid a MALDI matrix induced artefact with the hydroxylated product (Supplementary Fig. 16).
Data collected from time course assay(s) were used to plot the % conversion vs time (min) using GraphPad Prism5 version 5.04; the resultant slopes were used to fit a line with linear regression to the first-order region of the reaction. The resultant gradient was then converted from % product formation min^−1 to amount of peptide converted (demethylation and / or hydroxylation) in µM.
Supplementary Figure 4 Activity of KDM5C (black circles) with H2a(1–20)R3me2a is greater than that of KDM4E (white circles). (a) A MALDI–TOF MS time course graph of product formation (%) of KDM4E ( −14 Da/+16 Da) and KDM5C (−14 Da) reaction with H2a(1–20)R3me2a versus time (minutes). ~60% substrate depletion was reached after 105 minutes with KDM4E; ~95% of H2a(1–20)R3me2a was demethylated after 1 05 minut e s wit h K DM5 C. (b ) Comparison of specific activities of KDM4E with H2a(1–20)R3me2a (0.15 […]
bars; +/- SD; n = 3 (independent assays). See Supplementary Table 6 for assay condit ions.
(also on this page, place not known: 105 minutes KDM5C. (b) H2a(1 –20)R3me2a with conditions. specific activity (pmol·min-1·μM-1))
(1 picture or pasted object on this page, not shown here)
[ E nz ym e] [Peptide] [2OG] [Ascorbate] [(NH4)2F e(S O4)2] [TCEP] Buffer pH7.5 Enzyme Cognate substrate (mM) (mM) (mM) (mM) (mM) (mM) [HE PE S]
Supplementary Table 6 Summary of MS assay conditions for substrate screening. These conditions enabled efficient turnover of established substrates. Reactions were carried out at 37 °C unless otherwise st ated. […]

Ac - SGR [ me 2a ] GKQ GGKAR AKAKT R SSR [H2a(1–20)R3me2a, H2a(1–20)R3me2a without a biotin tag]
product formation (−14 Da/+16 Da) (0 min, replicate 1): 0% | product formation (−14 Da/+16 Da) (0 min, replicate 2): 0% | product formation (−14 Da/+16 Da) (0 min, replicate 3): 0% | product formation (−14 Da/+16 Da) (5 min, replicate 1): 3.341% | product formation (−14 Da/+16 Da) (5 min, replicate 2): 5.787% | product formation (−14 Da/+16 Da) (5 min, replicate 3): -0.8025% | product formation (−14 Da/+16 Da) (15 min, replicate 1): -0.9416% | product formation (−14 Da/+16 Da) (15 min, replicate 2): 5.091% | product formation (−14 Da/+16 Da) (15 min, replicate 3): -0.7355% | product formation (−14 Da/+16 Da) (30 min, replicate 1): 22.6189% | product formation (−14 Da/+16 Da) (30 min, replicate 2): 32.3989% | product formation (−14 Da/+16 Da) (30 min, replicate 3): 20.757% | product formation (−14 Da/+16 Da) (45 min, replicate 1): 29.5376% | product formation (−14 Da/+16 Da) (45 min, replicate 2): 33.3686% | product formation (−14 Da/+16 Da) (45 min, replicate 3): 28.8806% | product formation (−14 Da/+16 Da) (60 min, replicate 1): 41.1416% | product formation (−14 Da/+16 Da) (60 min, replicate 2): 35.7562% | product formation (−14 Da/+16 Da) (60 min, replicate 3): 37.6375% | product formation (−14 Da/+16 Da) (75 min, replicate 1): 48.3844% | product formation (−14 Da/+16 Da) (75 min, replicate 2): 47.469% | product formation (−14 Da/+16 Da) (75 min, replicate 3): 46.9153% | product formation (−14 Da/+16 Da) (90 min, replicate 1): 60.0026% | product formation (−14 Da/+16 Da) (90 min, replicate 2): 49.7939% | product formation (−14 Da/+16 Da) (90 min, replicate 3): 54.7629% | product formation (−14 Da/+16 Da) (105 min, replicate 1): 62.5982% | product formation (−14 Da/+16 Da) (105 min, replicate 2): 62.265% | product formation (−14 Da/+16 Da) (105 min, replicate 3): 60.6438% | substrate depletion (KDM4E, 105 minutes): ~ 60% | specific activity (KDM4E, mean of n = 3, SD 0.010): 0.15 pmol min^−1 µM^−1 | specific activity (KDM4E, repeat 1): 0.1634 pmol·min-1·μM-1 | specific activity (KDM4E, repeat 2): 0.141 pmol·min-1·μM-1 | specific activity (KDM4E, repeat 3): 0.1586 pmol·min-1·μM-1
